Like-named read-outs stand apart in the source and are kept apart here.
How the values were obtained:
CD38 = CD38 expression in tumor cells by flow cytometry after RA treatment; format: cell-based; conditions: 5 nM RA
Method: Table I lists the potential targets for anti-CD38 bound toxin treatment A number of different lymphoid tumor cell lines were treated with 5 nM all-trans-retinoic acid (RA). Afterwards, the expression of CD38 in untreated versus treated cell was measured by flow cytometry. […] The increase in CD38 expression ranges from 2.5 to 20 fold. Thus, retinoic acid can be used in all of these tumor types to increase the vulnerability of the tumor cells to immunotoxin treatment.

[1] = system: HL-60 cells with a mutated RARα gene; assay: MTS cell viability assay, retinoic acid-resistant HL60R cells; format: cell-based
Method: These cells are resistant to retinoic acid-induced expression of the CD38 antigen due to a point mutation in the retinoic acid receptor alpha (RARα) gene. The cell line was cultured with increasing concentrations of immunotoxin (in ng/ml) under different conditions.
HL-60 cells with a mutated RARα gene that renders the cells resistant to the effects of retinoic acid were treated with immunotoxin in either the presence or absence of 5 nM retinoic acid.

[2] = system: myeloid and lymphoid leukemia cells; conditions: retinoic acid 10^−13 M; cited from earlier work
HL-60 cells = assay: MTS cell viability assay, HL-60 cells; format: cell-based; conditions: 3 days, presence or absence of 5 nM retinoic acid
Method: HL-60 cells were incubated with either immunotoxin alone or in the presence of 5 nM retinoic acid (RA). Increasing concentrations of unconjugated IB4 monoclonal antibody were added to the cells incubated with immunotoxin and retinoic acid. After three days, the cells were assayed for viability with the MTS assay. Briefly, 6.5 mg/ml MTS solution [(3-(4,5-dimethylthiazol-2-yl)-5-(3-carboxymethoxyphenyl)-2-(4-sulfophenyl)-2H-tetrazolium] and 0.5 mM PMS (phenazine methosulfate) solution were mixed at a ratio of 20:1. 20 μl of the combined MTS/PMS solution was placed in each well of a 96 well plate containing samples of the cells to be tested. The plate was incubated for 1–4 hours at 37° C. in a 5% CO2 atmosphere, after which time, the amount of formazan produced by live cells from cellular reduction of MTS was measured by reading the absorbance at 490 nm. The results are shown in FIG. 2.
HL-60 cells were preincubated overnight in either the presence or absence of 5 nM all-trans-retinoic acid. The cells were washed twice and incubated in increasing concentrations of immunotoxin in either the presence or absence of IB4 unconjugated anti-CD38 MoAb. After three days, the cell were assayed for viability.
HL-60 cells were incubated for three days with increasing concentrations of either immunotoxin or gelonin in either the presence or absence of 5 nM retinoic acid. […]

Compound | CD38 after RA treatment (CD38; AML cells) | CD38 after RA treatment (CD38; APL cells) | CD38 after RA treatment (CD38; Lymphomas) | CD38 after RA treatment (CD38; Myelomas) | cell death (MTS) [1] | induction of CD38 cell surface antigen expression [2] [fold] | cell death (MTS) ([1]; HL60R (mutated RARα), 3 days) | toxic effect (MTS cell viability) (HL-60 cells)
CC1=C(/C=C/C(C)=C/C=C/C(C)=C/C(=O)O)C(C)(C)CCC1 [RA, all-trans-retinoic acid] | 180 ± 20 | 120 ± 30 | 210 ± 10 | 180 ± 25 | no appreciable cell death | 4 |  | 
gelonin |  |  |  |  |  |  | no appreciable cell death | no toxic effect

From patent publication US7223397B1, “Potentiation of anti-CD38-Immunotoxin cytotoxicity” (priority 1999, dated 2007)
